Measurements taken from PMC7377239, “Cardiovascular Effects of Polychlorinated Biphenyls and Their Major Metabolites” (Environmental Health Perspectives, 2020).
Like-named read-outs stand apart in the source and are kept apart here.

Test system: iCell cardiomyocytes (human iPSC-derived cardiomyocytes)
Assay: Intracellular Ca2+ flux / beating parameters in iCell cardiomyocytes (FLIPR tetra), 90 min or 24 h
Assay type: cell-based
Details: Homo sapiens, Cardiomyocyte, 0.00 µM = 100.00; for activity at 0.1 µM: 0.10 µM
Procedure, shortened: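 Gelatin-plated iCell cardiomyocytes (5,000/well) were dye-loaded for 2 h at 37 °C, then exposed for 90 min or 24 h to PCBs/metabolites (5× plates at 0.05–500 µM; 0.5% DMSO final) in triplicate. Ca2+ flux was read for 100 s at 8 Hz and 37 °C. Peak height, frequency, spacing CV and decay/rise ratio were vehicle-normalized and fitted with a four-parameter logistic model, with POD set at 1 SD of vehicle.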

[1] = 1.5 h, 90min, read-out: cm.amp.avg.90min
[2] = 1.5 h, 90min, read-out: cm.amp.cv.90min
[3] = 1.5 h, 90min, read-out: cm.bpm.90min
[4] = 1.5 h, 90min, read-out: cm.decay.rise.90min
[5] = 1.5 h, 90min, read-out: cm.spacing.cv.90min
[6] = 24 h, 24hrs, read-out: cm.amp.avg.24hrs
[7] = 24 h, 24hrs, read-out: cm.amp.cv.24hrs
[8] = 24 h, 24hrs, read-out: cm.bpm.24hrs
[9] = 24 h, 24hrs, read-out: cm.decay.rise.24hrs
[10] = 24 h, 24hrs, read-out: cm.spacing.cv.24hrs

`Clc1cc(Cl)c(-c2cc(Cl)c(Cl)cc2Cl)cc1Cl` [PCB153] was tested, and the activity at 0.01 µM [1] was 105%, the activity at 0.01 µM [2] was 113% and the activity at 0.01 µM [3] was 107%. The activity at 0.01 µM [4] was 97.7%, the activity at 0.01 µM [5] was 119% and the activity at 0.1 µM [1] was 107%. The activity at 0.1 µM [2] was 98.7%, the activity at 0.1 µM [3] was 97.8% and the activity at 0.1 µM [4] was 100%. It also gave an activity at 0.1 µM [5] of 102%, an activity at 1 µM [1] of 108% and an activity at 1 µM [2] of 121%. It also gave an activity at 1 µM [3] of 103%, an activity at 1 µM [4] of 92.5% and an activity at 1 µM [5] of 108%. It also gave an activity at 10 µM [1] of 93.7%, an activity at 10 µM [2] of 126% and an activity at 10 µM [3] of 120%. For the same compound, the activity at 10 µM [4] was 92.4%, the activity at 10 µM [5] was 119% and the activity at 100 µM [1] was 0%. For the same compound, the activity at 100 µM [2] was 0%, the activity at 100 µM [3] was 0% and the activity at 100 µM [4] was 0%. For the same compound, the activity at 100 µM [5] was 0%, the activity at 0.01 µM [6] was 50.2% and the activity at 0.01 µM [7] was 50.5%. For the same compound, the activity at 0.01 µM [8] was 51.5%, the activity at 0.01 µM [9] was 57.7% and the activity at 0.01 µM [10] was 50.2%. For the same compound, the activity at 0.1 µM [6] was 81.6%, the activity at 0.1 µM [7] was 123% and the activity at 0.1 µM [8] was 101%. For the same compound, the activity at 0.1 µM [9] was 92.5%, the activity at 0.1 µM [10] was 108% and the activity at 1 µM [6] was 125%. It also gave an activity at 1 µM [7] of 84.9%, an activity at 1 µM [8] of 99.3% and an activity at 1 µM [9] of 102%. For the same compound, the activity at 1 µM [10] was 97.8%, the activity at 10 µM [6] was 122% and the activity at 10 µM [7] was 120%. The activity at 10 µM [8] was 129%, the activity at 10 µM [9] was 93% and the activity at 10 µM [10] was 121%. For the same compound, the activity at 100 µM [6] was 0%, the activity at 100 µM [7] was 0% and the activity at 100 µM [8] was 0%. It also gave an activity at 100 µM [9] of 0% and an activity at 100 µM [10] of 0%.

Work on `Clc1ccc(Cl)c(-c2cc(Cl)ccc2Cl)c1` [PCB52] yielded an activity at 0.01 µM [1] of 97.9%, an activity at 0.01 µM [2] of 90.9% and an activity at 0.01 µM [3] of 102%. It also gave an activity at 0.01 µM [4] of 101%, an activity at 0.01 µM [5] of 93.9% and an activity at 0.1 µM [1] of 101%. It also gave an activity at 0.1 µM [2] of 102%, an activity at 0.1 µM [3] of 99.1% and an activity at 0.1 µM [4] of 101%. It also gave an activity at 0.1 µM [5] of 98.6%, an activity at 1 µM [1] of 105% and an activity at 1 µM [2] of 111%. It also gave an activity at 1 µM [3] of 97.8%, an activity at 1 µM [4] of 102% and an activity at 1 µM [5] of 91%. The activity at 10 µM [1] was 96.6%, the activity at 10 µM [2] was 99.4% and the activity at 10 µM [3] was 99.1%. For the same compound, the activity at 10 µM [4] was 111%, the activity at 10 µM [5] was 102% and the activity at 100 µM [1] was 44.4%. It also gave an activity at 100 µM [2] of 73%, an activity at 100 µM [3] of 0% and an activity at 100 µM [4] of 42.8%. It also gave an activity at 100 µM [5] of 71.6%, an activity at 0.01 µM [6] of 86.6% and an activity at 0.01 µM [7] of 98.1%. For the same compound, the activity at 0.01 µM [8] was 96.4%, the activity at 0.01 µM [9] was 111% and the activity at 0.01 µM [10] was 109%. For the same compound, the activity at 0.1 µM [6] was 84.6%, the activity at 0.1 µM [7] was 95.6% and the activity at 0.1 µM [8] was 90.7%. It also gave an activity at 0.1 µM [9] of 108%, an activity at 0.1 µM [10] of 89.3% and an activity at 1 µM [6] of 51.8%. It also gave an activity at 1 µM [7] of 42.2%, an activity at 1 µM [8] of 46.8% and an activity at 1 µM [9] of 55.5%. The activity at 1 µM [10] was 44.5%, the activity at 10 µM [6] was 86.5% and the activity at 10 µM [7] was 119%. The activity at 10 µM [8] was 93.6%, the activity at 10 µM [9] was 127% and the activity at 10 µM [10] was 98.5%. It also gave an activity at 100 µM [6] of 0%, an activity at 100 µM [7] of 0% and an activity at 100 µM [8] of 0%. The activity at 100 µM [9] was 0% and the activity at 100 µM [10] was 0%.
